Assay results from publication PMC4838859, “Genetically encoded photocrosslinkers locate the high-affinity binding site of antidepressant drugs in the human serotonin transporter” (Nature Communications, 2016).

Tests used:
[1] = test system: hSERT S2-binding site mutants (W103azF, Y107azF, W182azF, Y487azF, K490azF); test: Ultraviolet-induced photocrosslinking of [3H]labelled drug in HEK293T cells; details: 100 nM [3H]drug, 2 h 4 °C, UV 15 min; five S2 azF mutants
[2] = molecular target: hSERT F335azF (Homo sapiens, UniProt P31645); test: [3H]5-HT uptake assay (kinetics and uptake inhibition) in HEK293T cells; details: [3H]5-HT uptake inhibition, F335azF (S1 mutant); mean ± s.e.m.
[3] = molecular target: hSERT Y487azF (Homo sapiens, UniProt P31645); test: as above; details: [3H]5-HT uptake inhibition, Y487azF (S2 mutant); mean ± s.e.m.
[4] = molecular target: T1, hSERT F341azF (Homo sapiens, UniProt P31645); test: Ultraviolet-induced photocrosslinking of [3H]labelled drug in HEK293T cells
[5] = molecular target: hSERT W182azF (Homo sapiens, UniProt P31645); test: [3H]5-HT uptake assay (kinetics and uptake inhibition) in HEK293T cells; details: [3H]5-HT uptake inhibition, W182azF (S2 mutant); mean ± s.e.m.
[6] = molecular target: T1, hSERT F341azF; test: as above; details: [3H]5-HT uptake inhibition, F341azF (S1 mutant); mean ± s.e.m.
[7] = molecular target: T2, WT hSERT (Homo sapiens, UniProt P31645); test: Ultraviolet-induced photocrosslinking of [3H]labelled drug in HEK293T cells; details: 100 nM [3H]drug, 2 h 4 °C, UV 15 min
[8] = molecular target: hSERT K490azF (Homo sapiens, UniProt P31645); test: [3H]5-HT uptake assay (kinetics and uptake inhibition) in HEK293T cells; details: [3H]5-HT uptake inhibition, K490azF (S2 mutant); mean ± s.e.m.
[9] = molecular target: T3, hSERT Y95azF (Homo sapiens, UniProt P31645); details: 100 nM [3H]drug, 2 h 4 °C, UV 15 min, 50–100 kDa segment
[10] = molecular target: hSERT Y175azF (Homo sapiens, UniProt P31645); test: [3H]5-HT uptake assay (kinetics and uptake inhibition) in HEK293T cells; details: [3H]5-HT uptake inhibition, Y175azF (S1 mutant); mean ± s.e.m.
[11] = molecular target: T4, SERT WT (Homo sapiens, UniProt P31645); test: [3H]5-HT saturation uptake in the presence of a fixed concentration of vortioxetine (competitive inhibition); type: cell-based; parameters: expressed in transfected cells; host or cells: HEK293T; details: control 4.21 ± 0.45
[12] = molecular target: hSERT I168azF (Homo sapiens, UniProt P31645); test: [3H]5-HT uptake assay (kinetics and uptake inhibition) in HEK293T cells
[13] = molecular target: hSERT Y107azF (Homo sapiens, UniProt P31645); test: as above
[14] = molecular target: hSERT W103azF (Homo sapiens, UniProt P31645); test: as above; details: [3H]5-HT uptake inhibition, W103azF (S2 mutant); mean ± s.e.m.
[15] = molecular target: T2, WT hSERT; test: Saturation binding of [3H]vortioxetine / [3H]imipramine to HEK293T membranes expressing hSERT; parameters: expressed in transfected cells; host or cells: HEK293T; details: [3H]ligand saturation binding
[16] = molecular target: T4, SERT WT; test: [3H]5-HT uptake assay (kinetics and uptake inhibition) in HEK293T cells
[17] = molecular target: T3, hSERT Y95azF; test: as above

T2 sequence (P31645 whole entry): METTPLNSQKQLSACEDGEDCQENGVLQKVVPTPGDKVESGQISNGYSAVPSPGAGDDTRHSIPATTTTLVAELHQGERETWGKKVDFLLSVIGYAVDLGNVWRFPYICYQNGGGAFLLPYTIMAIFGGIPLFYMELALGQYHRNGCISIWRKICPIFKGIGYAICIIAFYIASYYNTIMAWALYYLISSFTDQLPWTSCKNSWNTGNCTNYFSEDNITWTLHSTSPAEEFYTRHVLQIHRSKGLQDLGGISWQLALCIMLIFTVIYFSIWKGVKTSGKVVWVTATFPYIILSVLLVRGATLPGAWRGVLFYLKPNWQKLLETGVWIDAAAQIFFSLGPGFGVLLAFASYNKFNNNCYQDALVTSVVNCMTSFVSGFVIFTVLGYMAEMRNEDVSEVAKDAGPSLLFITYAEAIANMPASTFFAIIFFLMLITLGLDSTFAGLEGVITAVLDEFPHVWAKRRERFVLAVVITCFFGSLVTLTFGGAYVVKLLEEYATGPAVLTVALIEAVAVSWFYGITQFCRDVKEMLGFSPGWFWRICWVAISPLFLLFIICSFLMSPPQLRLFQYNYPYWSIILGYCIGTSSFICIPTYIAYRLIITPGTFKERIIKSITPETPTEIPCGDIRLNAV
T3 sequence (P31645 whole entry): as above
T1 sequence (P31645 whole entry): as above
T4 sequence (P31645 whole entry): as above
Sequence of hSERT Y107azF (P31645 whole entry): as above
Sequence of hSERT I168azF (P31645 whole entry): as above
Sequence of hSERT F335azF (P31645 whole entry): as above
Sequence of hSERT Y487azF (P31645 whole entry): as above

SMILES: CN(C)CCCN1c2ccccc2CCc2ccccc21 [imipramine]
- ultraviolet-induced crosslinking (radioactivity signal vs non-UV control) [1]: did not crosslink

SMILES: Cc1ccc(Sc2ccccc2N2CCNCC2)c(C)c1 [vortioxetine]
- ultraviolet-induced crosslinking (radioactivity signal vs non-UV control) [1]: indistinguishable
- Ki [2]: 54 ± 9 nM
- Ki [3]: 96 ± 16 nM
- ultraviolet-induced crosslinking (radioactivity signal vs non-UV control) ([4]; 100 nM [3H]drug, 2 h 4 °C, UV 15 min, 50–100 kDa segment): significant ultraviolet-dependent radioactivity signal was detected
- displacement of crosslinking radioactivity signal by unlabelled inhibitor ([4]; 100 μM unlabelled inhibitor added before ultraviolet exposure): full displacement
- Ki [5]: 74 ± 9 nM
- Ki [6]: 43 ± 5 nM
- ultraviolet-induced crosslinking (radioactivity signal) [7]: no radioactivity signal was observed
- Ki [8]: 56 ± 20 nM
- ultraviolet-induced crosslinking (radioactivity signal vs non-UV control) [9]: no signal was detected
- Ki [10]: 53 ± 6 nM
- Vmax of 5-HT uptake in presence of inhibitor ([11]; 0.75 µM vortioxetine): 4.19 ± 0.50 pmol min-1 per well
- Vmax of 5-HT uptake in presence of inhibitor ([11]; 1 µM vortioxetine): 4.03 ± 0.36 pmol min-1 per well
- increase in potency (more sensitive) relative to WT hSERT ([12]; I168azF vs WT, Ki in [3H]5-HT uptake inhibition): 10 fold
- Ki ([12]; [3H]5-HT uptake inhibition, I168azF (S1 mutant), mean ± s.e.m.): 19 ± 3 nM
- increase in potency (more sensitive) relative to WT hSERT ([13]; Y107azF vs WT, Ki in [3H]5-HT uptake inhibition): 5 fold
- Ki ([13]; [3H]5-HT uptake inhibition, Y107azF (S2 mutant), mean ± s.e.m.): 38 ± 9 nM
- Ki [14]: 149 ± 12 nM
- Kd ([15]; WT hSERT C-terminally fused to 1D4 tag, mean±s.e.m.): 6.3 ± 0.7 nM
- Kd ([15]; WT hSERT without 1D4 tag): 6.1 ± 1.1 nM
- Ki [16]: 202 ± 19 nM
- decrease in potency relative to WT hSERT ([17]; Y95azF vs WT, Ki in [3H]5-HT uptake inhibition): 6 fold
- Ki ([17]; [3H]5-HT uptake inhibition, Y95azF (S1 mutant), mean ± s.e.m.): 1240 ± 125 nM
